Publication PMC8406298, “Discovery of Fungus-Specific Targets and Inhibitors Using Chemical Phenotyping of Pathogenic Spore Germination” (mBio, 2021)

Experiments:
[1] = tested on: Cryptococcus yeast (CHY3833 and CHY3836); experiment: Yeast replication secondary screen (OD600); type: cell-based, Cryptococcus neoformans serotype D (deneoformans); details: 10 μM, 12 h at 30°C
Experimental: (ii) Yeast replication. CHY3833 and CHY3836 were each grown in YPD liquid overnight at 30°C to saturation and then resuspended in 0.5× YPD at an OD600 of 0.005. Strains were aliquoted into 384-well plates with inhibitors and grown for 12 h at 30°C at […] before OD600 readings were taken. Compounds that caused a >10% decrease in growth were considered yeast growth inhibitors.

[2] = tested on: normal human dermal fibroblasts (NHDF) cells; experiment: Fibroblast cytotoxicity (CellTiter-Glo); type: cell-based; details: 10 µM
Outline: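 Normal human dermal fibroblasts, 1 × 10^3 per well, exposed to compounds at 10 μM for 72 h at 37°C. Viability read as ATP-dependent CellTiter-Glo luminescence. Dose-response runs titrated compounds from 80 μM to 0.5 μM in duplicate.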

Structure (SMILES) | Yeast Inhibition: % Inhibition [1] [%] | Cytotoxicity: Relative Cell Viability (% of Negative Control) [2]
O=C(C1COc2ccccc2O1)N1CCN(c2nc3c(F)cccc3s2)CC1 (stereo not shown) [compound 16032794] | 5.2 | 115.2 % of Negative Control
CCOC(=O)c1ccc(N2C(=O)CC(SCC(=O)Nc3ccc(S(N)(=O)=O)cc3)C2=O)cc1 (stereo not shown) [compound 16187117] | 83.7 | 118.0 % of Negative Control
O=C1NC(=S)S/C1=C\c1ccc(OC(F)(F)F)cc1 [compound 16433415] | 82.9 | 79.7 % of Negative Control
OC(COCC12CC3CC(CC(C3)C1)C2)CN1CCc2ccccc2C1 (stereo not shown) [compound 16456321] | 84.7 | 12.1 % of Negative Control
OC(COc1ccc(C23CC4CC(CC(C4)C2)C3)cc1)C[N+]1(Cc2ccccc2)CCOCC1 (stereo not shown) [compound 16456368] | 101.6 | 2.8 % of Negative Control
Cc1ccc(-c2nnc(Cn3cnc4ccccc43)o2)cc1 [compound 16456942] | 57.7 | 69.7 % of Negative Control
O=C(Nc1nc2ccccc2s1)C1CCCCN1S(=O)(=O)c1ccc(Cl)s1 (stereo not shown) [compound 16801811] | 24.0 | 86.9 % of Negative Control
Cc1ccc(OCCOCC(O)CN2CCN(c3ccc(F)cc3)CC2)cc1C (stereo not shown) [compound 16804490] | 17.9 | 94.5 % of Negative Control
O=C1C(NS(=O)(=O)c2ccccc2)=C/C(=N\S(=O)(=O)c2ccc(F)cc2)c2ccccc21 [compound 16805904] | -24.2 | 89.3 % of Negative Control
O=C(COc1ccc2ccccc2c1)NCC1COC2(CCCC2)O1 (stereo not shown) [compound 16823609] | 2.4 | 99.9 % of Negative Control
CSC1=Nc2cccnc2Nc2ccccc21 [compound 16824016] | 20.9 | 94.9 % of Negative Control
Cc1cccc(NC(=O)CC2SC(=O)N(c3ccc(F)cc3)C2=O)c1 (stereo not shown) [compound 16876071] | 58.1 | 86.9 % of Negative Control
COC(=O)Nc1nc(CC(=O)N2CCN(c3cccc(Cl)c3Cl)CC2)cs1 [compound 16883840] | 3.5 | 62.6 % of Negative Control
COc1ccc2nc(NS(=O)(=O)c3ccc(Cl)s3)sc2c1 [compound 16934153] | -7.4 | 76.4 % of Negative Control
O=S(=O)(Nc1nc2c(Cl)cccc2s1)c1ccc(Cl)s1 [compound 16934160] | -6.1 | 75.3 % of Negative Control
O=S(=O)(Nc1nc2c(F)cccc2s1)c1ccc(Cl)s1 [compound 16934170] | -6.6 | 77.5 % of Negative Control
O=C(Cn1c(=O)n(Cc2cccnc2)c(=O)c2ncccc21)Nc1ccc2c(c1)OCO2 [compound 16951905] | -5.5 | 101.3 % of Negative Control
O=C(Cn1c(=O)n(Cc2ccncc2)c(=O)c2ncccc21)Nc1ccc(F)c(Cl)c1 [compound 16951979] | 27.1 | 102.8 % of Negative Control
Cc1ccccc1N=c1scc(-c2ccc(F)cc2)n1CCO [compound 16955786] | 21.9 | 85.9 % of Negative Control
Fc1ccc(Nc2ccnc3ccc(Cl)cc23)c(F)c1 [compound 17016619] | 34.0 | 67.9 % of Negative Control
